Measurements: PMC11530827, “Characterization of a cytochrome P450 that catalyzes the O-demethylation of lignin-derived benzoates” (The Journal of Biological Chemistry, 2024)
Like-named read-outs stand apart in the source and are kept apart here.

T1: PbdA (Rhodococcus jostii, UniProt Q0SCI3)
T1 sequence (Q0SCI3 1-400): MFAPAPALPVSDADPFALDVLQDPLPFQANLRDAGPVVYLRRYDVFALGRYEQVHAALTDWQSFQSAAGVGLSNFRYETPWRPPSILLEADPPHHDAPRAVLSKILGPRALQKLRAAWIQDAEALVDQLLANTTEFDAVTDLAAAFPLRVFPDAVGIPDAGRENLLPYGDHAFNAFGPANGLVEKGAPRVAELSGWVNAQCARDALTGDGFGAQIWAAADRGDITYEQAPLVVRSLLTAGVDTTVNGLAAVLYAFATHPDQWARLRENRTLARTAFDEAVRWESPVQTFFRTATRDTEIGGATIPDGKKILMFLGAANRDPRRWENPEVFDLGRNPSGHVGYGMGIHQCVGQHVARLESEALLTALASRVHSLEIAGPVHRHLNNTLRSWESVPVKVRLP

B1: PbdA (Rhodococcus jostii RHA1) (protein)
chain: T1 sequence (Q0SCI3 1-400)

Assays:
PbdA [1] = molecular target: T1, PbdA; settings: for NADH depletion rate / Rate of Aromatic turnover / Coupling: WT PbdAB; for NADH depletion rate: air-saturated MOPS (I = 0.1 M); for Rate of Aromatic turnover: appearance of O-demethylated product (disappearance of p-EB); for Coupling: ratio of aromatic turnover rate to NADH oxidation rate
Method: We then measured coupling under optimum conditions for other substrates. […] Finally, we measured the apparent steady-state kinetic parameters of the PbdA reaction under conditions of maximal coupling (Fig. S4).
(§1) For activity measurements 0.25 to 1 μM of PbdA and PbdB were combined in a 200 μl cuvette in 20 mM Mops, pH 7.2 with substrate diluted in the same buffer. NADH was added to 350 μM to initiate the reaction. For HPLC analysis, enzymatic reactions were acidified by adding acetic acid to 10% final concentration, centrifuged (16,000×g for 10 min), and filtered through a 0.2 μm polytetrafluoroethylene membrane. Samples were run over a Luna 5 μm C18(2) 100 Å 150 × 3 mm column (Phenomenex) at 0.7 ml min^−1 by a Waters 2695 separation HPLC module. Samples were eluted with a 16.8 ml linear gradient from 1% methanol plus 0.1% formic acid in water to 100% methanol plus 0.1% formic acid and monitored at 280 nm with a Waters 2996 photodiode array detector. Concentrations were determined by interpolation on a standard curve of 0 to 1 mM of authentic standard. NADH concentration was measured by absorbance at 340 nm, ε = 6.22 mM^-1 cm^-1. Coupling was calculated from the ratio of rate of aromatic turnover, as determined by HPLC, and the rate of NADH oxidation, determined spectroscopically. Buffer ionic strength was adjusted by addition of NaCl, as appropriate. Apparent steady-state kinetic parameters were calculated by fitting Michaelis–Menten equations to initial velocity of reactions at various concentrations of aromatic substrate (LEONORA).

PbdA [2] = molecular target: T1, PbdA; assay: Substrate binding to PbdA (WT) by type I spectral shift titration; design: hexaHis (N, cleaved yes); made in house; host or cells: PbdA: E. coli BL-21 λ (DE3); PbdB: Rhodococcus jostii RHA1; settings: for %High-spin (percent of heme iron in high-spin state): on substrate binding
Method: The affinity of PbdA for various LDACs was measured by the type I spectral shift upon titration of aromatic compound (Fig. 2). This shift occurs as the compound displaces a water coordinated to the heme iron, initiating a spin state transition in the latter from a low spin, hexacoordinate, to a high spin, pentacoordinate form.
Figure 2 Substrate binding of PbdA. A, difference spectra of PbdA titrated with 1 to 50 μM p-MBA from the substrate-free enzyme. Darker colors indicate higher concentration of p-MBA. Spectra were collected after each addition of substrate to 1 μM enzyme in 20 mM Mops, I = 0.1 M, pH 7.2. B, binding isotherm of PbdA and p-MBA. The fitted curve represents a simple hyperbola. p-MBA, para-methoxybenzoate.
(§2) UV-visible spectroscopy was conducted with a Cary 60 spectrophotometer equipped with a thermostatted cuvette holder at 25 °C. Scans of purified proteins diluted in 20 mM Mops, I = 0.1 M, pH 7.2 were taken between 250 and 700 nm. Heme concentration was calculated as described previously ([35]). Carbon monoxide binding was determined by reduction of PbdA diluted in 20 mM Mops, I = 0.1 M, pH 7.2 as above by a few grains of […]. CO was bubbled into the reduced enzyme for approximately 60 s at a rate of one bubble per second. Dissociation constants (Kd) were determined by titration of ligands diluted into enzyme buffer from 1 M stocks prepared in dimethyl sulfoxide into PbdA diluted in 20 mM Mops, I = 0.1 M, pH 7.2. Spectra take upon addition of substrate were subtracted from the spectrum of the enzyme, and peak-to-trough distance was plotted by ligand concentration. Kd values were determined by fitting a hyperbolic equation to the data as described previously ([23], [36]). The proportion of high-spin heme iron was determined using the approximate peak-to-trough extinction coefficient (ε ≈ 100 mM^−1 cm^−1) ([36]).

PbdA S237A [3] = molecular target: T2, PbdA S237A (Rhodococcus jostii, UniProt Q0SCI3, S235A); assay: Activity and coupling assay of PbdA S237A variant with PbdB; assay type: biochemical, Rhodococcus jostii RHA1; settings: for NADH depletion rate: air-saturated MOPS (I = 0.1 M), pH 7.2, 25 °C
T2 construct: hexaHis (N, cleaved yes); made in house; host or cells: PbdA variant: E. coli BL-21 λ (DE3); PbdB: Rhodococcus jostii RHA1
Method: as §1
(§3) ^aExperiments were performed using air-saturated MOPS (I = 0.1 M), pH 7.2, at 25 °C. The rate of aromatic substrate turnover was based on the appearance of O-demethylated product. Standard deviation is shown in parentheses.

PbdA S87A/S237A [4] = molecular target: T3, PbdA S87A/S237A (Rhodococcus jostii, UniProt Q0SCI3, S235A/S85A); assay: Substrate binding to PbdA S87A/S237A variant by spectral titration; design: species or system Rhodococcus jostii RHA1
T3 construct: hexaHis (N, cleaved yes); made in house; host or cells: PbdA variant: E. coli BL-21 λ (DE3); PbdB: Rhodococcus jostii RHA1
Method: as §2

PbdA S237A [5] = molecular target: T2, PbdA S237A; assay: Substrate binding to PbdA S237A variant by spectral titration; design: species or system Rhodococcus jostii RHA1
Method: as §2

PbdA R84M [6] = molecular target: T4, PbdA R84M (Rhodococcus jostii, UniProt Q0SCI3, R82M); assay: Activity and coupling assay of PbdA R84M variant with PbdB; assay type: biochemical, Rhodococcus jostii RHA1; settings: air-saturated MOPS (I = 0.1 M), pH 7.2, 25 °C
T4 construct: hexaHis (N, cleaved yes); made in house; host or cells: PbdA variant: E. coli BL-21 λ (DE3); PbdB: Rhodococcus jostii RHA1
Method: as §1, §3

PbdA S87A/S237A [7] = molecular target: T3, PbdA S87A/S237A; assay: Activity and coupling assay of PbdA S87A/S237A variant with PbdB; assay type: biochemical, Rhodococcus jostii RHA1; settings: for NADH depletion rate: air-saturated MOPS (I = 0.1 M), pH 7.2, 25 °C
Method: as §1, §3

CYP199A4 = test system: CYP199A4; design: method as in PMID 26969786; settings: cited from earlier work
PbdA R84M [8] = molecular target: T4, PbdA R84M; assay: Substrate binding to PbdA R84M variant by spectral titration; design: species or system Rhodococcus jostii RHA1
Method: as §2

PbdA S87A [9] = molecular target: T5, PbdA S87A (Rhodococcus jostii, UniProt Q0SCI3, S85A); assay: Activity and coupling assay of PbdA S87A variant with PbdB; assay type: biochemical, Rhodococcus jostii RHA1; settings: for NADH depletion rate: air-saturated MOPS (I = 0.1 M), pH 7.2, 25 °C
T5 construct: hexaHis (N, cleaved yes); made in house; host or cells: PbdA variant: E. coli BL-21 λ (DE3); PbdB: Rhodococcus jostii RHA1
Method: as §1, §3

PbdA S87A [10] = molecular target: T5, PbdA S87A; assay: Substrate binding to PbdA S87A variant by spectral titration; design: species or system Rhodococcus jostii RHA1
Method: as §2

CYP199A2 = test system: CYP199A2; design: method as in PMID 20024082; settings: cited from earlier work
RHA1 = assay: Growth of RHA1 on p-EB; assay type: cell-based, Rhodococcus jostii RHA1; settings: M9G with up to 5 mM p-EB; OD600 after 48 hours
Method: RHA1 was grown in M9 media supplemented with a mixture trace metals […]) ([37]) and growth substrate. Growth substrates were solubilized in dimethyl sulfoxide and added to the media. For the growth on p-EB experiment, RHA1 was grown in 1 ml […] supplemented with 5 mM benzoate for 1 day shaking at 30 °C. The cells were spun harvested and washed twice with […] and added to 3 ml […] containing p-EB or benzoate at a final OD600 of 0.05. OD600 of 150 μl culture in a 96-well plate was measured by a TECAN Spark microplate reader. […] When OD600 reached 0.6, cells were harvested, washed twice in […] and suspended in 50 ml of […] 1 mM p-EB. After 4 h of incubation, cell supernatant was collected for LC-MS analysis. Figure S6: Growth of RHA1 on p-EB. Growth of WT in […] supplemented with up to 5 mM of p-EB or 5 mM benzoate. OD600 was measured after 48 hours incubation.

[11] = substrate: COc1ccc(C(=O)O)cc1O; assay: purified protein, by the assay type; settings: other: WT PbdA with PbdB, air-saturated Mops (I = 0.1 M), pH 7.2, 25 °C, SD in parentheses
[12] = pH 7.2, 25 °C, SD in parentheses
[13] = WT PbdA, 20 mM Mops, I = 0.1 M, pH 7.2, 25 °C, SD in parentheses, read-out: Kd
[14] = appearance of O-demethylated product

T2 sequence (Q0SCI3 entry or part of it S235A): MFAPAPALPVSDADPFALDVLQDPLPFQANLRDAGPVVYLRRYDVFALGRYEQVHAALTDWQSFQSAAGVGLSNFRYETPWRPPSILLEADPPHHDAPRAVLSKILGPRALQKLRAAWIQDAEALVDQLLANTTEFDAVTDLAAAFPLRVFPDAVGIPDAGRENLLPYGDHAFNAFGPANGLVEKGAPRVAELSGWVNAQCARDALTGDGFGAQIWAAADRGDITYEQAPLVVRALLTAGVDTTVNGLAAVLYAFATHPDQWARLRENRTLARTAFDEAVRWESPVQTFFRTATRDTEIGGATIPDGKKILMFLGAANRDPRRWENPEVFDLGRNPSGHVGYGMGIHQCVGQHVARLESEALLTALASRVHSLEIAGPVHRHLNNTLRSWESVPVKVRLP
T5 sequence (Q0SCI3 entry or part of it S85A): as the sequence (Q0SCI3 entry or part of it S235A) above, with S85A, A235S counted along it
T4 sequence (Q0SCI3 entry or part of it R82M): as the sequence (Q0SCI3 entry or part of it S235A) above, with R82M, A235S counted along it
T3 sequence (Q0SCI3 entry or part of it S85A/S235A): as the sequence (Q0SCI3 entry or part of it S235A) above, with S85A counted along it

Molecule	NADH depletion rate (PbdA [1]; [12])	Rate of Aromatic turnover (PbdA [1]; SD in parentheses)	Coupling (PbdA [1])	Kd (PbdA [2]; [13]) [µM]	%High-spin (percent of heme iron in high-spin state) (PbdA [2]; WT PbdA) [%]	NADH depletion rate (PbdA S237A [3])	Kd (PbdA S87A/S237A [4]) [µM]	Kd (PbdA S237A [5]) [µM]	NADH depletion rate (PbdA R84M [6])	NADH depletion rate (PbdA S87A/S237A [7])	O-demethylation rate relative to that of p-MBA (CYP199A4) [%]	Kd (PbdA R84M [8]) [µM]	NADH depletion rate (PbdA S87A [9])	Kd (PbdA S87A [10]) [µM]	Kd (PbdA [2]) [µM]	further results
COc1ccc(C(=O)O)cc1O [Isovanillate, isovanillate]	2200 (200) U mg P450^-1	1600 (100) U mg P450^-1	75.3 (0.1) %	90	94	–	–	–	–	–	–	–	–	–	–	Coupling (PbdA [1]; listed as isovanillate): approximately 75%
COc1ccc(C=O)cc1 [p-MBAL, p-methoxybenzaldehyde]	140 (30) U mg P450^-1	did not detectably O-demethylate	–	–	7.9	300 (50) U mg P450^-1	8	12	170 (10) U mg P450^-1	200 (4) U mg P450^-1	0.1	7	290 (20) U mg P450^-1	16	11	Coupling (PbdA S237A [3]): 9 (3) %; Specific activity (PbdA S237A [3]; O-demethylation): 27 (2) U μg P450^-1; Rate of Aromatic turnover (PbdA S237A [3]; [14]): 30 (3) U mg P450^-1; Coupling (PbdA S87A/S237A [7]): 90 (20) %; Specific activity (PbdA S87A/S237A [7]; O-demethylation): 180 (20) U μg P450^-1; Rate of Aromatic turnover (PbdA S87A/S237A [7]; [14]): 180 (40) U mg P450^-1; Coupling (PbdA S87A [9]): 27 (7) %; Specific activity (PbdA S87A [9]; O-demethylation): 80 (30) U μg P450^-1; Rate of Aromatic turnover (PbdA S87A [9]; [14]): 80 (30) U mg P450^-1
COc1ccc(C(=O)O)cc1OC [Veratrate, veratrate]	2830 (50) U mg P450^-1	2030 (60) U mg P450^-1	72 (3) %	–	84	–	–	–	–	–	–	–	–	–	18	Coupling (PbdA [1]; listed as veratrate): approximately 75%; Turnover of substrate (CYP199A2): did not detectibly turn over
CCc1ccc(C(=O)O)cc1 [p-EB, p-ethylbenzoate]	830 (80) U mg P450^-1	900 (100) U mg P450^-1	110 (7) %	6	72	–	–	–	–	–	–	–	–	–	–	kcat (apparent) (PbdA [1]; WT PbdA with PbdB, air-saturated Mops (I = 0.1 M), pH 7.2, 25 °C, SD in parentheses): 0.14 (0.01) s^−1; Km (PbdA [1]; read-out: KM (apparent), WT PbdA with PbdB, air-saturated Mops (I = 0.1 M), pH 7.2, 25 °C, SD in parentheses): 12 µM; Growth of RHA1 on the compound as substrate (RHA1): did not grow
COc1ccc(C(C)=O)cc1 [p-MAP, p-methoxyacetophenone]	117 (6) U mg P450^-1	did not detectably O-demethylate	–	37	2.8	220 (6) U mg P450^-1	8	12	170 (30) U mg P450^-1	160 (30) U mg P450^-1	0.25	8	265 (7) U mg P450^-1	14	–	–
B1	–	–	–	–	–	–	–	–	–	–	–	–	–	–	–	Km [11]: 30 (10) μM; kcat [11]: 0.15 s⁻¹; kcat/Km [11]: 5000 M⁻¹ s⁻¹
